The values below come from patent publication US10011571B2, “Preparation method for aromatic heterocyclic compound used as selective JAK3 and/or JAK1 kinase inhibitor and application of aromatic heterocyclic compound” (SHENZHEN CHIPSCREEN BIOSCIENCES, LTD., priority 2014, dated 2018).

The target in assay [1] is JAK3 (Homo sapiens (Human), UniProt P52333). Briefly: Z'-LYTE enzymatic activity detection, JAK3. It is filed as biochemical. The conditions noted are these: test compound 30 nM; for inhibition at 0.03 µM: read-out: JAK3 % inhibitory rate @30 nM. On the procedure:
(§1) The basic principle of in vitro enzymatic activity assay is based on the difference between the intensities of fluorescence signals generated at different wavelengths (445 nm and 520 nm) from the phosphorylated substrate and non-phosphorylated substrate, in which the specific fluorescence-labeled substrate is phosphorylated by the kinase. When different test compounds are added, the inhibition of kinase activity is represented as the different degrees of substrate phosphorylation, and thus as the different intensities of fluorescence signal, based on which the inhibitory activity of the compound on the kinase can be calculated. Basic detection principle is illustrated in FIG. 1.
(§2) In an enzymatic inhibitory activity detection, GST-labeled human recombinant JAK kinases, including JAK1/PV4774, JAK2/PV4210, JAK3/PV3855, TYK2/PV4790 and their corresponding specific substrates, including Tyr6 (Z′-LYTE® Kinase Assay Kit-Tyrosine 6 Peptide, JAK1/PV4122), Tyr4 (Z′-LYTE® Kinase Assay Kit-Tyrosine 4 Peptide, JAK2/PV3193), Tyr4 (Z′-LYTE® Kinase Assay Kit-Tyrosine 4 Peptide, JAK3/PV3193), Tyr3 (Z′-LYTE® Kinase Assay Kit-[…], TYK2/PV3192) are used. In all tests, development reagent A (PV3297) was used as the test agent. All materials mentioned above were purchased from Invitrogen.
(§3) (1) Preparation: kinase reaction buffer (working solution) is prepared according to the instruction; a concentration gradient of the test compound is prepared by dilution using the kinase reaction buffer (the highest compound concentration is 10 μM for JAK1, JAK2, and TYK2 detection, and 1 μM for JAK3 detection, respectively).
(§4) (2) 10 μl of reaction system, comprising 2.5 μL test compound, 5 μL kinase reaction buffer and 2.5 μL ATP solution (provided by the kit), is mixed and reaction is performed at room temperature for 1 h.
(§5) (3) Controls, including a solvent control without the test compound, a negative control without ATP and a positive control with the phosphorylated substrate, are tested together with the detection. All tests are carried out in triplicate.
(§6) (4) After the enzymatic reaction, 5 μL pre-formulated development buffer is added, and reaction is performed at room temperature for 1 h. Subsequently, the reaction is terminated by adding 5 μL stop buffer.
(§7) (5) The fluorescence signal in each well is detected by an Ascent Fluoroskan FL reader (Thermo Labsystems) at an excitation wavelength of 400 nm, and emission wavelengths of 445 nm and 520 nm. The proportion of substrate phosphorylation is obtained by reference to the fluorescence signal intensity C445/F520.
(§8) (6) The enzymatic inhibitory rate of the test compound can be calculated based on the following equation: Inhibitory rate (%)=1−the proportion of substrate phosphorylation in the detection well/the proportion of substrate phosphorylation in the solvent control well. The half-inhibitory concentration (IC50) can be calculated using an IC50 calculator based on the inhibitory rates of phosphorylation for the test compounds at different concentration gradients.
(§9) Based on the above method, the compounds described herein are enzymatically evaluated in vitro for JAKs (the concentration of the test compound is 30 nM for JAK3 and JAK2 test, and 300 nM for JAK1 test) using Xeljanz (tofacitinib citrate) as the positive control.

In assay [2] the target is JAK1 (Homo sapiens (Human), UniProt P23458). Put plainly: Z'-LYTE enzymatic activity detection, JAK1. It is filed as biochemical. The conditions noted are these: test compound 300 nM; for inhibition at 0.3 µM: read-out: JAK1 % inhibitory rate @300 nM. On the procedure: as §1, §2, §3, §4, §5, §6, §7, §8, §9
Assay [3] deals with JAK2 (Homo sapiens (Human), UniProt O60674). Put plainly: Z'-LYTE enzymatic activity detection, JAK2. It is filed as biochemical. The settings on record: test compound 30 nM; read-out: JAK2 % inhibitory rate @30 nM. The procedure: as §1, §2, §3, §4, §5, §6, §7, §8, §9
Assay [4] relates to CTLL-2 cells. Put plainly: Cell growth activity assay (MTS), CTLL-2 cell model. The settings on record: Mus musculus, CTLL-2, 300 nM, 24 h, read-out: CTLL-2 % growth rate @300 nM. It is filed as cell-based, mouse. The source says:
(§10) MTS assay is a routine method for cell toxicity detection. The basic principle is based on the capacity of dehydrogenase in the mitochondria of living cells to reduce a novel yellow […] MTS to formazan, so that the amount of living cells is proportional to the amount of formazan product by detecting the absorbance at 490 nm (OD), thereby speculating the amount of living cells according to the OD value, and understanding the capacity of the test compound to inhibit the growth of cells or to kill the cells.
In this experiment, mouse T-cell line CTLL-2 was used. The proliferation and growth of this cell line strongly depend on IL-2, and it is commonly used to evaluate the active titer of exogenous IL-2. By inhibiting the activity of kinase JAK1/3, the proliferation of CTLL-2 can be inhibited under in vitro culture. The activation and proliferation of T-cell is also important pathological characteristics for various immunological diseases. Thus, this model is also pathologically related.
By comparing the change of absorbance generated by the cells treated by the test compounds using MTS assay, the growth inhibitory activity of the test compounds on the model cells can be realized, and thereby potential inhibitory activity of the compounds on JAK1/3 pathway can be evaluated.
(§11) MTS is performed according to routine procedure in a 96-well plate.
The model cells are inoculated into each well of the 96-well plate at an appropriate concentration (about 20,000 cells/well). After 24 h, the test compounds are added at different concentration gradients (the highest concentration of 10 μM). A solvent control (DMSO) and a negative control are also performed at the same time. Each experiment is repeated for 3 times. The cells are detected after cultured for another 24 h.
CTLL-2 is a suspended cell. After incubation, 20 μL pre-formulated mixture of MTS and PMS (in a ratio of 20:1) is directly added to each well. After incubation at 37° C. for 2 h, it is then detected by a microplate reader (490 nm).
The effect of the test compound on cell growth is calculated by comparing the change of OD values between the test well and the solvent control well, after subtracting the background of the negative control. For the test compounds at different concentration gradients, the inhibitory rates on the growth of model cells and their half-growth inhibitory concentrations (GI50) are each calculated.
Based on the above method, cytological evaluation is performed to the compounds described herein (for the detection of CTLL-2 cell, the concentration of the test compound is 300 nM; for the detection of HeLa and HUVEC cell, the concentration of the test compound is […]).

Assay [5] deals with HeLa cells. Briefly: Cell growth activity assay (MTS), HeLa cell model. It is filed as cell-based, human. More on the design: activity: dose or concentration left out as unconfirmed. The settings on record: Homo sapiens, HeLa, 72 h, read-out: HeLa % growth rate.
Source text: as §10
HeLa cell is a human cervical cancer cell line, and belongs to epithelial tumor cell line; HUVEC is a human umbilical vein endothelial cell, and belongs to primary endothelial cell; both types of cells express all subtypes except for JAK3.
The change of JAK kinase activity has no significant influence on other cell types except for the immune cells, and both cell models mentioned above are mainly used to evaluate whether there are any other kinase targets besides JAK kinases or there are nonselective cell toxicities.
In this experiment, a cultured cell model is incubated with the test compounds at different concentrations for a specific duration. The effect of the treatment by the test compound on the growth of cells is detected using MTS assay.
as §11
The model cells are inoculated into each well of the 96-well plate at an appropriate concentration (about 5000 cells/well). After 24 h, the test compounds are added at different concentration gradients (the highest final concentration is 40 μM). A solvent control (DMSO) and a negative control are also performed at the same time. Each experiment is repeated for 3 times. The cells are detected after cultured for another 72 h.
After all culture medium is aspirated out of the well, 100 μL fresh medium and 20 μL pre-formulated mixture of MTS and PMS (in a ratio of 20:1) are added to each well. After incubation at 37° C. for 2 h, it is then detected by a microplate reader (490 nm).
The cell growth inhibitory rate and GI50 of the test compound are calculated as above.
Based on the above method, cytological evaluation is performed to the compounds described herein (for the detection of CTLL-2 cell, the concentration of the test compound is 300 nM; […]).

Chain of JAK1 (P23458 whole entry): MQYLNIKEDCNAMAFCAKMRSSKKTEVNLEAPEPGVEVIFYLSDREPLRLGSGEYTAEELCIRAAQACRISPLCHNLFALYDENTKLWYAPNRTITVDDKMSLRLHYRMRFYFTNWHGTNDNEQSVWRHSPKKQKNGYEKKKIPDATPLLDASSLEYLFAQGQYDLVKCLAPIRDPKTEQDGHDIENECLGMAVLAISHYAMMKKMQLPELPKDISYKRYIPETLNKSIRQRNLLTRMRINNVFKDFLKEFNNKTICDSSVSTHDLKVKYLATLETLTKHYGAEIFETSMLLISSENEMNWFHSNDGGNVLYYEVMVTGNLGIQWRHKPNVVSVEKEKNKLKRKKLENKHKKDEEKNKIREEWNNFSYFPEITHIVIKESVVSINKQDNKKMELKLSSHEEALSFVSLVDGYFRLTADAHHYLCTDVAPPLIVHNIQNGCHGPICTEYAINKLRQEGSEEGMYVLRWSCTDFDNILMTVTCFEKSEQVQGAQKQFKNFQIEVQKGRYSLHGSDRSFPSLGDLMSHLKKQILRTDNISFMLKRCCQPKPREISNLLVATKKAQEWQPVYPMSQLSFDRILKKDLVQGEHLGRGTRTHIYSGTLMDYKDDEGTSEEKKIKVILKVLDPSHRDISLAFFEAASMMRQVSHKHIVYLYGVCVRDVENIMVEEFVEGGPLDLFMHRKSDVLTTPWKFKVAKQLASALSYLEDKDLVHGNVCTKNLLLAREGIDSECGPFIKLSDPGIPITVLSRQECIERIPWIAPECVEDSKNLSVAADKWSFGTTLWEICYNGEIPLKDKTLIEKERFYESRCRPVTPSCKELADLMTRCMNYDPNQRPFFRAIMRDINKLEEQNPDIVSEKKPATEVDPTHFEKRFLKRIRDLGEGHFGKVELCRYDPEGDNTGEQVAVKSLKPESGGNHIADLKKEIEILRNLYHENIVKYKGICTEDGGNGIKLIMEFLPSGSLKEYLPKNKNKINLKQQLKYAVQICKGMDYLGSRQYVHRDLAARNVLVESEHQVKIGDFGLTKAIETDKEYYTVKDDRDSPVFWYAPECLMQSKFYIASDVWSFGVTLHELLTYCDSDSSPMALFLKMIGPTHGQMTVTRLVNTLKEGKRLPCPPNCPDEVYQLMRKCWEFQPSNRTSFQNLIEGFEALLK
Chain of JAK2 (O60674 whole entry): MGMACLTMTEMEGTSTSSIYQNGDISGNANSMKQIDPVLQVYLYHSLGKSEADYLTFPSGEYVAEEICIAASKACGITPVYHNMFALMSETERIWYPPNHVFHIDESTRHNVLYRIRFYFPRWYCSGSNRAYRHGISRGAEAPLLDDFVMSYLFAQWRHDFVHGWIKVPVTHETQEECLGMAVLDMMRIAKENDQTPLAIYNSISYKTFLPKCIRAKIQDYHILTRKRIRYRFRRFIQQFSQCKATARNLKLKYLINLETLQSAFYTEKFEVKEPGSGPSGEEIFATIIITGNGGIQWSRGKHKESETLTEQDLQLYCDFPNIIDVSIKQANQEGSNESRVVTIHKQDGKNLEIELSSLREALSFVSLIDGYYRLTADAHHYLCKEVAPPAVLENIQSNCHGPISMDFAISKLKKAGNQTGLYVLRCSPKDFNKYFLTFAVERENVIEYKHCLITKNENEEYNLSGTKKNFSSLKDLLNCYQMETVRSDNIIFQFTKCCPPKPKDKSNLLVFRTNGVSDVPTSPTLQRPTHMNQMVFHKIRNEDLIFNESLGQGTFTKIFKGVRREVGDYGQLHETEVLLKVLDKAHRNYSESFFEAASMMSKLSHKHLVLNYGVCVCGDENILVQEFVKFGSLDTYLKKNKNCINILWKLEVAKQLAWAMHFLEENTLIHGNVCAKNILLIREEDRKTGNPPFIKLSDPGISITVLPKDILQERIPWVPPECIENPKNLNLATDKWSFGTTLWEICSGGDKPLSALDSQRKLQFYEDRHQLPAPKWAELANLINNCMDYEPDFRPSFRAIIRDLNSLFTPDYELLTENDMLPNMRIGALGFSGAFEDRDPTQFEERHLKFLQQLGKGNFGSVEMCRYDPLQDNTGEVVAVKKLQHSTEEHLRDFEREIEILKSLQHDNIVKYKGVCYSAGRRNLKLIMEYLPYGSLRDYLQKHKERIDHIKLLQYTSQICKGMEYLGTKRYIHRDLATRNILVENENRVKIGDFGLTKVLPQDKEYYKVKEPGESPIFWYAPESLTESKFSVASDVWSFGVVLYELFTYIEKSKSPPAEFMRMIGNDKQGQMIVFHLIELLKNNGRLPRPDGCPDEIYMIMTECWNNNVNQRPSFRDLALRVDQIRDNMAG
Chain of JAK3 (P52333 whole entry): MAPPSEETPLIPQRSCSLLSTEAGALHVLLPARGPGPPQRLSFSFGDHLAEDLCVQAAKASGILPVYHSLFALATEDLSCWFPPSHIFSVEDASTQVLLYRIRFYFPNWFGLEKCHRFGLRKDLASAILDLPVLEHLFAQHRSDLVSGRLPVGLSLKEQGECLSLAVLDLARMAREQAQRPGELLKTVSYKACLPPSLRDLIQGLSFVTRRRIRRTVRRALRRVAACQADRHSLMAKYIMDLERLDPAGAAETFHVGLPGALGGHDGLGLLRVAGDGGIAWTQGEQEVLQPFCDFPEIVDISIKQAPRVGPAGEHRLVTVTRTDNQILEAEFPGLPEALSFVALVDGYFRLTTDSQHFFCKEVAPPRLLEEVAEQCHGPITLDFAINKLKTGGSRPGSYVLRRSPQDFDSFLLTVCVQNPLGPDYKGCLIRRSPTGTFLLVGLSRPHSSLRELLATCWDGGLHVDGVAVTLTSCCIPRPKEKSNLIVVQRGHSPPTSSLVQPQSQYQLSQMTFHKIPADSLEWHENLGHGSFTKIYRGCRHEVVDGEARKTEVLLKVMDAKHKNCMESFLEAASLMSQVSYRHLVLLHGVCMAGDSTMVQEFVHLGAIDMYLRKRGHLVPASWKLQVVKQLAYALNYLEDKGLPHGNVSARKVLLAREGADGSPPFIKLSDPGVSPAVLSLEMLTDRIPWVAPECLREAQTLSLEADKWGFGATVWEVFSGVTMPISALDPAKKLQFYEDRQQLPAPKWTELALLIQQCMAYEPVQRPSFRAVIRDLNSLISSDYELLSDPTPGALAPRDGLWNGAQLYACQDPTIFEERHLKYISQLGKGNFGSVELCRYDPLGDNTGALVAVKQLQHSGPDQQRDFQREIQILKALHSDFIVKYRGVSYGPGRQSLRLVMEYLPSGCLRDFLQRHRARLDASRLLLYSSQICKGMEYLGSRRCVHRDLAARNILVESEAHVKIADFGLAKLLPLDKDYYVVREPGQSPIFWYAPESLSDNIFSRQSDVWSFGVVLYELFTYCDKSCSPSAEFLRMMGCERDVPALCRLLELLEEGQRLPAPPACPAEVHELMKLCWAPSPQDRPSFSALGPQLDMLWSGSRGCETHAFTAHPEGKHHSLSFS

Take `C=CC(=O)Nc1cc(Nc2ncc(Cl)c(NCCCNC(=O)c3ccc(C(F)(F)F)cc3)n2)ccc1F` [Example 13, N-(3-(2-(3-acrylamido-4-fluoro-phenylamino)-5-chloropyrimidinyl-4-amino)propyl)-4-trifluoromethylbenzamide]: in assay [1], the “JAK3 RV (ratio between the inhibitory rate of the test compound and that of Xeljanz)” value amounted to 0.96; the inhibition at 0.03 µM was determined as 79%. In assay [2], the “JAK1 RV (ratio between the inhibitory rate of the test compound and that of Xeljanz)” value amounted to 0.40; the inhibition at 0.3 µM is 35%. The inhibition at 0.03 µM in assay [3] was 0%. In addition, the activity at 0.3 µM in assay [4] turned out to be 63%. Further, the activity in assay [5] worked out at 1%.
As to `C=CC(=O)N(C)c1cc(Nc2ncc(Cl)c(NCCCNC(=O)c3c(F)cc(F)cc3F)n2)ccc1F` [Example 36, N-(3-(5-chloro-2-(4-fluoro-3-(N-methylacrylamido)phenylamino)pyrimidinyl-4-amino)propyl)-2,4,6-trifluorobenzamide], in assay [1], the “JAK3 RV (ratio between the inhibitory rate of the test compound and that of Xeljanz)” value came out at 0.53; the inhibition at 0.03 µM was 104%. In addition, in assay [2], the “JAK1 RV (ratio between the inhibitory rate of the test compound and that of Xeljanz)” value amounted to 0.25; the inhibition at 0.3 µM was determined as 42%. The inhibition at 0.03 µM in assay [3] stood at 0%. Also, the activity at 0.3 µM in assay [4] worked out at 32%. Further, the activity in assay [5] came to 38%.
In the case of `C=CC(=O)N(C)c1cc(Nc2ncc(Cl)c(NCCCNC(=O)c3ccc(OC)cc3)n2)ccc1F` [Example 40, N-(3-(5-chloro-2-(4-fluoro-3-(N-methylacrylamido)phenylamino)pyrimidinyl-4-amino)propyl)-4-methoxylbenzamide], in assay [1], the “JAK3 RV (ratio between the inhibitory rate of the test compound and that of Xeljanz)” value stood at 0.46; the inhibition at 0.03 µM turned out to be 89%. Also, in assay [2], the “JAK1 RV (ratio between the inhibitory rate of the test compound and that of Xeljanz)” value is 0.02; the inhibition at 0.3 µM is 4%. Besides, in assay [3], the inhibition at 0.03 µM is 0%. Further, the activity at 0.3 µM in assay [4] came out at 39%. In assay [5], the activity came to 82%.
`C=CC(=O)N(C)c1cc(Nc2ncc(Cl)c(NCCCNC(=O)c3ccc(C#N)nc3)n2)ccc1F` [Example 44, N-(3-(5-chloro-2-(4-fluoro-3-(N-methylacrylamido)phenylamino)pyrimidinyl-4-amino)propyl)-6-cyanonicotinamide]: in assay [1], the “JAK3 RV (ratio between the inhibitory rate of the test compound and that of Xeljanz)” value came to 0.58; the inhibition at 0.03 µM amounted to 113%. Further, in assay [2], the “JAK1 RV (ratio between the inhibitory rate of the test compound and that of Xeljanz)” value stood at 0.34; the inhibition at 0.3 µM was determined as 58%. The inhibition at 0.03 µM in assay [3] was 0%. The activity at 0.3 µM in assay [4] is 29%. Also, the activity in assay [5] stood at 39%.
For the compound `C=CC(=O)N(C)c1cc(Nc2ncc(Cl)c(NCCCNC(=O)c3ccc(O)cc3)n2)ccc1F` [Example 48, N-(3-(5-chloro-2-(4-fluoro-3-(N-methylacrylamido)phenylamino)pyrimidinyl-4-amino)propyl)-4-hydroxybenzamide], in assay [1], the “JAK3 RV (ratio between the inhibitory rate of the test compound and that of Xeljanz)” value was 0.56; the inhibition at 0.03 µM is 109%. In addition, the inhibition at 0.3 µM in assay [2] was determined as 0%. For the same compound, in assay [3], the inhibition at 0.03 µM was 0%. The activity at 0.3 µM in assay [4] was found to be 50%. In assay [5], the activity worked out at 90%.
Take `C=CC(=O)N(C)c1cc(Nc2ncc(Cl)c(NCCCNC(=O)c3ccc(C#N)cc3F)n2)ccc1F` [Example 52, N-(3-(5-chloro-2-(4-fluoro-3-(N-methylacrylamido)phenylamino)pyrimidinyl-4-amino)propyl)-4-cyano-2-fluorobenzamide]: in assay [1], the “JAK3 RV (ratio between the inhibitory rate of the test compound and that of Xeljanz)” value is 0.54; the inhibition at 0.03 µM was 105%. Moreover, in assay [2], the “JAK1 RV (ratio between the inhibitory rate of the test compound and that of Xeljanz)” value is 0.08; the inhibition at 0.3 µM was determined as 14%. Also, the inhibition at 0.03 µM in assay [3] turned out to be 0%. Moreover, the activity at 0.3 µM in assay [4] was 29%. Further, the activity in assay [5] worked out at 64%.
For the compound `C=CC(=O)N(C)c1cc(Nc2ncc(Cl)c(NCCCNC(=O)c3ccc(C#N)c(F)c3)n2)ccc1F` [Example 56, N-(3-(5-chloro-2-(4-fluoro-3-(N-methylacrylamido)phenylamino)pyrimidinyl-4-amino)propyl)-4-cyano-3-fluorobenzamide], in assay [1], the “JAK3 RV (ratio between the inhibitory rate of the test compound and that of Xeljanz)” value was 0.59; the inhibition at 0.03 µM worked out at 116%. In addition, in assay [2], the “JAK1 RV (ratio between the inhibitory rate of the test compound and that of Xeljanz)” value is 0.05; the inhibition at 0.3 µM was determined as 9%. Moreover, the inhibition at 0.03 µM in assay [3] amounted to 0%. In assay [4], the activity at 0.3 µM was found to be 30%. In assay [5], the activity worked out at 60%.
